Test results from ChEMBL document CHEMBL2040736, “Design of potent and selective hybrid inhibitors of the mitotic kinase Nek2: structure-activity relationship, structural biology, and cellular activity” (J Med Chem, 2012).

Assays:
[1] = target: RAC-beta serine/threonine-protein kinase (Homo sapiens) (UniProt P31751); assay: Inhibition of AKT2 at 1 uM incubated for 30 mins prior to substrate addition study done at apparent ATP Km for enzyme
[2] = target: T1, Serine/threonine-protein kinase Nek2 (Homo sapiens, UniProt P51955)
T1 sequence (P51955 whole entry): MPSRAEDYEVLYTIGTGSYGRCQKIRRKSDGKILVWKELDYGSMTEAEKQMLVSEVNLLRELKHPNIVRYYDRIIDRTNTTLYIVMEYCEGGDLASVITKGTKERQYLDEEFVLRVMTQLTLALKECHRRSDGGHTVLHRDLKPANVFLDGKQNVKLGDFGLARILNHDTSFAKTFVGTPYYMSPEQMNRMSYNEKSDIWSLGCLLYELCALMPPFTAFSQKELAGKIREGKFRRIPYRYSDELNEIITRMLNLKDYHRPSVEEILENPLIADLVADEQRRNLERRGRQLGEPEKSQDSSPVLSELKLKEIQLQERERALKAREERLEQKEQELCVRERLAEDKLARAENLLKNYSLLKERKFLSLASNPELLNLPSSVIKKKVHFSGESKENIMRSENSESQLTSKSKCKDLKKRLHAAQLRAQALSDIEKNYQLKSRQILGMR
Description: Inhibition of Nek2-mediated C-Nap1 phosphorylation in human U2OS cells after 3 hrs by immunofluorescence microscopy

[3] = target: Mitogen-activated protein kinase 14 (Homo sapiens) (UniProt Q16539); assay: Inhibition of p38alpha at 1 uM incubated for 30 mins prior to substrate addition study done at apparent ATP Km for enzyme
[4] = Inhibition of CH1D at 1 uM incubated for 30 mins prior to substrate addition study done at apparent ATP Km for enzyme
[5] = target: Serine/threonine-protein kinase Chk1 (Homo sapiens) (UniProt O14757); assay: Inhibition of CHK1 at 1 uM incubated for 30 mins prior to substrate addition study done at apparent ATP Km for enzyme
[6] = Inhibition of CH1D incubated for 30 mins prior to substrate addition study done at apparent ATP Km for enzyme
[7] = target: T2, Glycogen synthase kinase-3 beta (Homo sapiens, UniProt P49841); assay: Inhibition of GSK3beta incubated for 30 mins prior to substrate addition study done at apparent ATP Km for enzyme
Target sequence in this assay (P49841 whole entry): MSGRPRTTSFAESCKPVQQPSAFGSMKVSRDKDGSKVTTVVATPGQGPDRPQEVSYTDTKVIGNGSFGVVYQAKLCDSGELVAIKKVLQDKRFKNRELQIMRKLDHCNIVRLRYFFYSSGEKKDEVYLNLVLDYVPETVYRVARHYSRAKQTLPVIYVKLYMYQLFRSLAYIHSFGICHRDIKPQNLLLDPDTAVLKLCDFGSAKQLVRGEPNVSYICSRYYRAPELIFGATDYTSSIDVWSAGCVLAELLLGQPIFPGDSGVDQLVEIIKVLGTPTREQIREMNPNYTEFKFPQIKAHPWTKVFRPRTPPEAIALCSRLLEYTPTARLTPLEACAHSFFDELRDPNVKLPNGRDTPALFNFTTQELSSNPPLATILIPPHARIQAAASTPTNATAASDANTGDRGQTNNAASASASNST

[8] = target: Hepatocyte growth factor receptor (Homo sapiens, UniProt P08581); assay: Inhibition of MET incubated for 30 mins prior to substrate addition study done at apparent ATP Km for enzyme
[9] = target: T3, Proto-oncogene tyrosine-protein kinase Src (Homo sapiens, UniProt P12931); assay: Inhibition of SRC incubated for 30 mins prior to substrate addition study done at apparent ATP Km for enzyme
[10] = target: Serine/threonine-protein kinase Chk2 (Homo sapiens, UniProt O96017); conditions: 1 uM
[11] = target: Tyrosine-protein kinase Fyn (Homo sapiens, UniProt P06241); assay: Inhibition of FYN incubated for 30 mins prior to substrate addition study done at apparent ATP Km for enzyme
[12] = target: T3, Proto-oncogene tyrosine-protein kinase Src; conditions: 1 uM
[13] = target: Tyrosine-protein kinase Lyn (Homo sapiens, UniProt P07948); assay: Inhibition of LYN at 1 uM incubated for 30 mins prior to substrate addition study done at apparent ATP Km for enzyme
[14] = target: Tyrosine-protein kinase ABL1 (Homo sapiens, UniProt P00519); assay: Inhibition of ABL at 1 uM incubated for 30 mins prior to substrate addition study done at apparent ATP Km for enzyme
[15] = target: MAP kinase-activated protein kinase 5 (Homo sapiens) (UniProt Q8IW41); assay: Inhibition of PRAK at 1 uM incubated for 30 mins prior to substrate addition study done at apparent ATP Km for enzyme
[16] = target: RAC-alpha serine/threonine-protein kinase (Homo sapiens) (UniProt P31749); assay: Inhibition of AKT1 at 1 uM incubated for 30 mins prior to substrate addition study done at apparent ATP Km for enzyme
[17] = target: Mitogen-activated protein kinase 3 (Homo sapiens) (UniProt P27361); assay: Inhibition of Erk1 at 1 uM incubated for 30 mins prior to substrate addition study done at apparent ATP Km for enzyme
[18] = target: Protein kinase C zeta type (Homo sapiens) (UniProt Q05513); assay: Inhibition of PKCzeta at 1 uM incubated for 30 mins prior to substrate addition study done at apparent ATP Km for enzyme
[19] = target: Ribosomal protein S6 kinase alpha-1 (Homo sapiens) (UniProt Q15418); assay: Inhibition of RSK1 at 1 uM incubated for 30 mins prior to substrate addition study done at apparent ATP Km for enzyme
[20] = target: Ribosomal protein S6 kinase alpha-5 (Homo sapiens) (UniProt O75582); assay: Inhibition of MSK1 at 1 uM incubated for 30 mins prior to substrate addition study done at apparent ATP Km for enzyme
[21] = target: T2, Glycogen synthase kinase-3 beta; assay: Inhibition of GSK3beta at 1 uM incubated for 30 mins prior to substrate addition study done at apparent ATP Km for enzyme
Target sequence in this assay (P49841 whole entry, looked up): as the sequence (P49841 whole entry) above

[22] = target: MAP kinase-activated protein kinase 2 (Homo sapiens) (UniProt P49137); assay: Inhibition of MAPKAPK2 at 1 uM incubated for 30 mins prior to substrate addition study done at apparent ATP Km for enzyme
[23] = target: Tyrosine-protein kinase Lck (Homo sapiens, UniProt P06239); assay: Inhibition of LCK incubated for 30 mins prior to substrate addition study done at apparent ATP Km for enzyme
[24] = target: Mitogen-activated protein kinase 1 (Homo sapiens) (UniProt P28482); assay: Inhibition of Erk2 at 1 uM incubated for 30 mins prior to substrate addition study done at apparent ATP Km for enzyme
Chain of Mitogen-activated protein kinase 1 (Homo sapiens) (P28482 whole entry): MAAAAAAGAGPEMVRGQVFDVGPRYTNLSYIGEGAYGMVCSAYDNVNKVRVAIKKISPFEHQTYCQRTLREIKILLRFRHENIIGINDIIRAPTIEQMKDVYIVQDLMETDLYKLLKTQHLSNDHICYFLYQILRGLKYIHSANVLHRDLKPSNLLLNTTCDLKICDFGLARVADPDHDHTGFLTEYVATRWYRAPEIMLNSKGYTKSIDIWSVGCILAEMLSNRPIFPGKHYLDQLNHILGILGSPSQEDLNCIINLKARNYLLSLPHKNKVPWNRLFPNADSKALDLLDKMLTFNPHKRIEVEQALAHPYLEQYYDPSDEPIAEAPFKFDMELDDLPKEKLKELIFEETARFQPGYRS

T3 sequence (P12931 2-536 limits assumed): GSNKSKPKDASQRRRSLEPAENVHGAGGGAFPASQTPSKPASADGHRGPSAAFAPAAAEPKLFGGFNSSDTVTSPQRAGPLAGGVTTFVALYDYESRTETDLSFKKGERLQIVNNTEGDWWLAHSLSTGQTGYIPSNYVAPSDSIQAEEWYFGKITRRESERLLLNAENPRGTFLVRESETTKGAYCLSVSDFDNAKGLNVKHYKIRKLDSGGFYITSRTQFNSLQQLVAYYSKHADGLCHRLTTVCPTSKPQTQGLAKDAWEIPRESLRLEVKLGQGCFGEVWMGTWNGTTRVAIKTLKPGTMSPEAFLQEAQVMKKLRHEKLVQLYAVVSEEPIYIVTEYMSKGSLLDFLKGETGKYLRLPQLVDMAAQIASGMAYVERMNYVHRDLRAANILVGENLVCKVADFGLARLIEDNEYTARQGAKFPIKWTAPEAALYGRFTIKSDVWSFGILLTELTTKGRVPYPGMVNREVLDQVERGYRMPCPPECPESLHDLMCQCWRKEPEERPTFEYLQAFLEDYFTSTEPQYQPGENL
Chain of Tyrosine-protein kinase Lyn (P07948 2-512 limits assumed): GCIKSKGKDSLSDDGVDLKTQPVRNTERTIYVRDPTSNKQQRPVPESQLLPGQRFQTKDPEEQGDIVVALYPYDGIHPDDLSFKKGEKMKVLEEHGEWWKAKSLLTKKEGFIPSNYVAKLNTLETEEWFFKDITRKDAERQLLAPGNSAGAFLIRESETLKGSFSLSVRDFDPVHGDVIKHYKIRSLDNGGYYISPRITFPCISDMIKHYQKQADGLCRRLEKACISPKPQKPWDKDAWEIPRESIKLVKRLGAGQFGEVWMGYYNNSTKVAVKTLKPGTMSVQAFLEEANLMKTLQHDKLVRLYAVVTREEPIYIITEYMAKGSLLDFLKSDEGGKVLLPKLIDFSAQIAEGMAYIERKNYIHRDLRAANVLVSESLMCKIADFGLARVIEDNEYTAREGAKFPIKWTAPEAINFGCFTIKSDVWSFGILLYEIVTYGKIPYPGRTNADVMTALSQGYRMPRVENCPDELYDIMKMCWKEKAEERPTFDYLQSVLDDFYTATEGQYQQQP
Chain of MAP kinase-activated protein kinase 5 (Homo sapiens) (Q8IW41 whole entry): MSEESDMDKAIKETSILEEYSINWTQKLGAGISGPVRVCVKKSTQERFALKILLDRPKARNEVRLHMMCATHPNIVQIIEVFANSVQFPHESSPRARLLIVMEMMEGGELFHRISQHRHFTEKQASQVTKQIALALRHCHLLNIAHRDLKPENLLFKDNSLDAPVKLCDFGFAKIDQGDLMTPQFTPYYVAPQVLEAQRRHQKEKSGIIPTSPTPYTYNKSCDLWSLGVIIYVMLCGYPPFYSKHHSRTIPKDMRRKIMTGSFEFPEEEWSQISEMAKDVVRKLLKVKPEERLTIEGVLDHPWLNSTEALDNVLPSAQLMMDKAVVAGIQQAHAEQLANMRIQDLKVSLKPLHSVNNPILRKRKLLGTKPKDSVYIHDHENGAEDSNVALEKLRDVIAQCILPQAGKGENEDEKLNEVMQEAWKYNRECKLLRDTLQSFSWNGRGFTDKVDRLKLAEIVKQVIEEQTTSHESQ
Chain of Hepatocyte growth factor receptor (P08581 whole entry): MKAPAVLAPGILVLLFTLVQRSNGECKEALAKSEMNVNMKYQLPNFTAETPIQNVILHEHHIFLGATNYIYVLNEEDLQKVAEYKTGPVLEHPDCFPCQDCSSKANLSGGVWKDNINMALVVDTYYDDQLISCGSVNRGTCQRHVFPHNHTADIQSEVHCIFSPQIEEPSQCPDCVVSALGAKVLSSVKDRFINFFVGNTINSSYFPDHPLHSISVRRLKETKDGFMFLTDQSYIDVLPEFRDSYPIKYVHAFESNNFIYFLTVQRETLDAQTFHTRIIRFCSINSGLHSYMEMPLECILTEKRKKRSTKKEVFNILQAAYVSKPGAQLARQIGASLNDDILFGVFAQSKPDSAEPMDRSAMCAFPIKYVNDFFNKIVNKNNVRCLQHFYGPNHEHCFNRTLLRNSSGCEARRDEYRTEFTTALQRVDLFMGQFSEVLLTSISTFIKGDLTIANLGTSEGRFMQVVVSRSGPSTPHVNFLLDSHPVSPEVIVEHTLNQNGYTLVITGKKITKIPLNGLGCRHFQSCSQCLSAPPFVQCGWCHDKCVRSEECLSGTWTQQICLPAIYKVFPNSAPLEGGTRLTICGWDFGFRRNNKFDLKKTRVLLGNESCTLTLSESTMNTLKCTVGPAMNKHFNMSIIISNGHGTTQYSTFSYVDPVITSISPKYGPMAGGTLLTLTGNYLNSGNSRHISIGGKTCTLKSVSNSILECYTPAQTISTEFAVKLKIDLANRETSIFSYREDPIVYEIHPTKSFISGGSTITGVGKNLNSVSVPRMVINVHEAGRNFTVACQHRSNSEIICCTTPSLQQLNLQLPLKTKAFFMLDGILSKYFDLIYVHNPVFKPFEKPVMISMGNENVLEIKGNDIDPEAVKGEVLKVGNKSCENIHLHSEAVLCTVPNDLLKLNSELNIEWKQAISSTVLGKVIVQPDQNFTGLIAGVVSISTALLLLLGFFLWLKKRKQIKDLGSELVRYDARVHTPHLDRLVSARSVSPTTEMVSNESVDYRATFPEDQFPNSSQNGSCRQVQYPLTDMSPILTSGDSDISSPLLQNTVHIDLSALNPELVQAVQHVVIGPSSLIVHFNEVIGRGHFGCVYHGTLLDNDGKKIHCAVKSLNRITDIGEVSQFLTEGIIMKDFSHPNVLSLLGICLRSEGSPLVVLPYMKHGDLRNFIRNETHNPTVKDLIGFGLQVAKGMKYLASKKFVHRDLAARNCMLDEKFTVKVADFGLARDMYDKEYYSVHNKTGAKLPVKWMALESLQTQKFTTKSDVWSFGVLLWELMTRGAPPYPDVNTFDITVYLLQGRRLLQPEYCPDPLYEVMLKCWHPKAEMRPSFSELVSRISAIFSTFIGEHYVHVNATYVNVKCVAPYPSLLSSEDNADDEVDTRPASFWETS
Chain of Tyrosine-protein kinase Lck (P06239 whole entry): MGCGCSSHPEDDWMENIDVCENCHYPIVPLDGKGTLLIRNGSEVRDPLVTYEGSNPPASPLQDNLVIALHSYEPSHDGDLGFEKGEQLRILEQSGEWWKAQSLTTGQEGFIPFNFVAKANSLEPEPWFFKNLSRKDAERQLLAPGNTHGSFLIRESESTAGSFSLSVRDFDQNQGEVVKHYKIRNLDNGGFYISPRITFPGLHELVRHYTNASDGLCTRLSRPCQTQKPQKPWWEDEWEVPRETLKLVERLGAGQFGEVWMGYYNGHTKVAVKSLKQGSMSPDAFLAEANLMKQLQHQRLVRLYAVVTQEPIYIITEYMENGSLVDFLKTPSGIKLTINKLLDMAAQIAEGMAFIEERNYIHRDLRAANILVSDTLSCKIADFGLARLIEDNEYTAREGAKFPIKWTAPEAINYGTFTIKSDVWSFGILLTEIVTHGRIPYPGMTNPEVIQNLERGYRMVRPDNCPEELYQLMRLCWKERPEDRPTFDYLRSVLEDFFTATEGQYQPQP
Chain of RAC-alpha serine/threonine-protein kinase (Homo sapiens) (P31749 whole entry): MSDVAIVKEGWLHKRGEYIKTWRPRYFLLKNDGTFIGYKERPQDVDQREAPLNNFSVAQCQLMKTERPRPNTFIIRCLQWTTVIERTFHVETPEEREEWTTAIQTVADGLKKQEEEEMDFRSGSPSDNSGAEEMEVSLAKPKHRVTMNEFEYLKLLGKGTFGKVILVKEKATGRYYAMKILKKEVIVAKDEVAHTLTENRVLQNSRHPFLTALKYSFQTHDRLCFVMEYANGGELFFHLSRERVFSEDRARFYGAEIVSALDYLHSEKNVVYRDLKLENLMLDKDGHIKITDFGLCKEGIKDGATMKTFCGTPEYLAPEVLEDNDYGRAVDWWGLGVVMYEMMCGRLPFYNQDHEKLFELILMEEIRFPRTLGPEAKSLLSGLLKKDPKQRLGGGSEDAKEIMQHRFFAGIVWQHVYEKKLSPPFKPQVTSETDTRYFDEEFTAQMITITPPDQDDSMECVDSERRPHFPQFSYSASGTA

## C[C@H](/C=C\C(F)(F)F)Oc1cc(-c2cc(-c3cc(CN(C)C)cs3)cnc2N)ccc1C(N)=O
[1]
  inhibition: 0%
[2]
  IC50: 800 nM
[3]
  inhibition: 0%
[4]
  inhibition: 67%
[5]
  inhibition: 11%
[6]
  IC50: 430 nM
[7]
  IC50: 70 nM
[8]
  IC50: 1170 nM
[9]
  IC50: 840 nM
[10]
  inhibition: 32%
[11]
  IC50: 750 nM
[12]
  inhibition: 51%
[13]
  inhibition: 43%
[14]
  inhibition: 46%
[15]
  inhibition: 7%
[16]
  inhibition: 3%
[17]
  inhibition: 2%
[18]
  inhibition: 12%
[19]
  inhibition: 29%
[20]
  inhibition: 25%
[21]
  inhibition: 93%
[22]
  inhibition: 6%
[23]
  IC50: 110 nM
[24]
  inhibition: 11%
